In brackets after ≈: the same amount, converted by molar mass. Read-outs that look alike come from different tables or passages of the source.
Experiments:
MraY A. aeolicus = conditions: Figure 1F, ref Mashalidis et al., 2019, cited from earlier work
Text: (§1) FIGURE 1 Chemical structures of natural UPAs (black) and synthetic analogues with modified 5′-aminouridine moiety (blue) and their corresponding inhibitory activity. (A) The pseudo-tetrapeptide backbone of UPAs. (B) The chemical structures of 5′-aminouridine of natural UPAs. (C–E) The chemical structures of modified 5′-aminouridine of synthetic analogues. (F) Detailed information on structure and inhibitory activities of natural UPAs and synthesized derivatives. Pae, Pseudomonas aeruginosa; Mtb, Mycobacterium tuberculosis; B. subtilis, Bacillus subtilis; S. aureus, Staphylococcus aureus; A. ae ...

Pae PAO1 = conditions: Figure 1F; ref Okamoto et al., 2012; cited from earlier work
M. tuberculosis H37Rv [1] = test: microbe, parasite or virus in culture; conditions: Mycobacterium tuberculosis, read-out: MIC M. tuberculosis H37Rv
M. tuberculosis S17 [2] = test: microbe, parasite or virus in culture; conditions: Mycobacterium tuberculosis, S17, read-out: MIC M. tuberculosis S17
[3] = Stability in KH2PO4 buffer, HPLC; format: physicochemical; conditions: chemical stability, 0.05 M KH2PO4 buffer pH 6.0, room temperature (method: 28 °C), HPLC peak area, three parallel repeats
Protocol: Poor stability is one of the factors hindering the development of sansanmycin analogues into drug candidates. Thus, we conducted stability experiments followed the method reported previously ([Shi et al., 2016]) on the two active sansanmycin analogues, SS-KK-2 and SS-KK-3 (Figure 5). These experiments were carried out at room temperature with the parent compound SS-A as a control.
FIGURE 5 Stability of SS-A, SS-KK-2 and SS-KK-3. (A–C) HPLC analysis of SS-A, SS-KK-2 and SS-KK-3 at indicated days in KH2PO4 buffer (pH 6.0) at room temperature. (D) The changes of the level of SS-A, SS-KK-2 and SS-KK-3 over time. All samples were analyzed by HPLC and quantified according to the areas of peaks. Each sample underwent three parallel repeats. SS-A, black line; SS-KK-2, orange line; SS-KK-3, green line.
The stability assessment of sansanmycin A and its analogues was conducted using a previously reported method ([Shi et al., 2016]). Sansanmycins were dissolved in 0.05 M KH2PO4 buffer (with pH adjusted to 6.0 using NaOH) and incubated at 28 °C for 9 days with testing conducted every 3 days. Each sample underwent three parallel repeats. All samples were analyzed by HPLC and quantified by peak area analysis.

E. coli ΔtolC = conditions: microdilution in Mueller-Hinton broth, 10 h at 37°C, visual read-out, triplicate
P. aeruginosa 11 [4] = conditions: microdilution in Mueller-Hinton broth, 10 h at 37°C, visual read-out, triplicate
M. Phlei [5] = conditions: microdilution in Mueller-Hinton broth, 10 h at 37°C, visual read-out, triplicate
M. tuberculosis H37Rv [6] = test system: M. tuberculosis H37Rv
M. tuberculosis S17 [7] = conditions: clinical isolate susceptible to isoniazid and rifampicin; Alamar blue, 7H9 broth, triplicate wells
Mtb H37Rv [8] = conditions: Figure 1F, natural sansanmycins; reference not given; cited from earlier work
P. aeruginosa 11 [9] = test: microbe, parasite or virus in culture; conditions: Pseudomonas aeruginosa, 11, 10 h, read-out: MIC P. aeruginosa 11
M. Phlei [10] = test: microbe, parasite or virus in culture; conditions: Mycolicibacterium phlei, 10 h, read-out: MIC M. Phlei
Pae PAM1020 = conditions: Figure 1F; ref Boojamra et al., 2001; cited from earlier work
Mtb H37Rv [11] = conditions: Figure 1F, ref Tran et al., 2017, cited from earlier work
MraY B. subtilis = conditions: Figure 1F; ref Inukai et al., 1993; cited from earlier work
Text: as §1

Compound: 3′-hydroxymureidomycin A
- IC50 (MraY A. aeolicus; value in brackets): 0.052 µM
- IC50 (MraY A. aeolicus) (MraY A. aeolicus): 0.045 µg/mL

Compound: 3′-hydroxypacidamycin D
- MIC (Pae PAO1) (Pae PAO1): 32 µg/mL

Compound: NNC(=O)c1ccncc1 [INH, isoniazid]
- MIC (M. tuberculosis H37Rv [1]): 0.03 µg/mL (≈ 0.219 µM)
- MIC (M. tuberculosis S17 [2]): 0.03 µg/mL (≈ 0.219 µM)

Compound: CC(=O)NC[C@H]1CN(c2ccc(N3CCOCC3)c(F)c2)C(=O)O1 [LZD, linezolid]
- MIC (M. tuberculosis H37Rv [1]): 0.25 µg/mL (≈ 0.741 µM)
- MIC (M. tuberculosis S17 [2]): 0.25 µg/mL (≈ 0.741 µM)

Compound: CO[C@H]1/C=C/O[C@@]2(C)Oc3c(C)c(O)c4c(O)c(c(/C=N/N5CCN(C)CC5)c(O)c4c3C2=O)NC(=O)/C(C)=C\C=C\[C@H](C)[C@H](O)[C@@H](C)[C@@H](O)[C@@H](C)[C@H](OC(C)=O)[C@@H]1C [RIF, rifampicin]
- MIC (M. tuberculosis H37Rv [1]): 0.125 µg/mL (≈ 0.152 µM)
- MIC (M. tuberculosis S17 [2]): 0.25 µg/mL (≈ 0.304 µM)

Compound: CSCC[C@H](NC(=O)N[C@@H](Cc1c[nH]c2ccccc12)C(=O)O)C(=O)N[C@H](C(=O)N/C=C1/C[C@@H](O)[C@H](n2ccc(=O)[nH]c2=O)O1)[C@H](C)N(C)C(=O)[C@@H](N)Cc1cccc(O)c1 [SS-A, sansanmycin A]
- residual quantities after 9 days of incubation [3]: below 70%
- MIC E. coli ΔtolC (E. coli ΔtolC): 4 µg/mL (≈ 4.63 µM)
- MIC P. aeruginosa 11 (P. aeruginosa 11 [4]): 16 µg/mL (≈ 18.5 µM)
- MIC M. Phlei (M. Phlei [5]): 64 µg/mL (≈ 74.1 µM)
- MIC M. tuberculosis H37Rv (M. tuberculosis H37Rv [6]): 16 µg/mL (≈ 18.5 µM)
- MIC M. tuberculosis S17 (M. tuberculosis S17 [7]): 16 µg/mL (≈ 18.5 µM)
- MIC (Mtb H37Rv) (Mtb H37Rv [8]): 16 µg/mL (≈ 18.5 µM)

Compound: CSCC[C@H](NC(=O)N[C@@H](Cc1c[nH]c2ccccc12)C(=O)O)C(=O)N[C@H](C(=O)NC[C@H]1O[C@@H](n2ccc(=O)[nH]c2=O)C[C@@H]1O)[C@H](C)N(C)C(=O)[C@@H](N)Cc1cccc(O)c1 [SS-KK-1]
- MIC E. coli ΔtolC (E. coli ΔtolC): >32 µg/mL
- MIC P. aeruginosa 11 (P. aeruginosa 11 [4]): >32 µg/mL
- MIC M. Phlei (M. Phlei [5]): >32 µg/mL
- MIC M. tuberculosis H37Rv (M. tuberculosis H37Rv [6]): >64 µg/mL
- MIC M. tuberculosis S17 (M. tuberculosis S17 [7]): >64 µg/mL

Compound: CSCC[C@H](NC(=O)N[C@@H](Cc1c[nH]c2ccccc12)C(=O)O)C(=O)N[C@H](C(=O)NC[C@H]1O[C@@H](n2ccc(=O)[nH]c2=O)C[C@@H]1O)[C@H](C)N(C)C(=O)[C@@H](N)Cc1ccc(O)cc1 [SS-KK-2]
- stability compared with SS-A ([3]; 9 days, tested every 3 days): slightly higher level of stability than SS-A
- MIC E. coli ΔtolC (E. coli ΔtolC): 1 µg/mL (≈ 1.15 µM)
- MIC P. aeruginosa 11 (P. aeruginosa 11 [4]): >32 µg/mL
- MIC M. Phlei (M. Phlei [5]): >32 µg/mL
- MIC M. tuberculosis H37Rv (M. tuberculosis H37Rv [6]): 32 µg/mL (≈ 37 µM)
- MIC M. tuberculosis S17 (M. tuberculosis S17 [7]): 32 µg/mL (≈ 37 µM)

Compound: [H]/N=C(/N)N[C@H]1[C@H](O)[C@@H](O)[C@H](O[C@@H]2O[C@@H](C)[C@](O)(C=O)[C@H]2O[C@@H]2O[C@@H](CO)[C@H](O)[C@@H](O)[C@@H]2NC)[C@@H](N/C(N)=N\[H])[C@@H]1O [streptomycin]
- MIC E. coli ΔtolC (E. coli ΔtolC): 2 µg/mL (≈ 3.44 µM)
- MIC (P. aeruginosa 11 [9]): 8 µg/mL (≈ 13.8 µM)
- MIC (M. Phlei [10]): 16 µg/mL (≈ 27.5 µM)

Compound: Dihydropacidamycin D
- MIC (Pae PAM1020) (Pae PAM1020): 64 µg/mL

Compound: Dihydrosansanmycin A
- MIC50 (Mtb H37Rv) (Mtb H37Rv [11]; value in brackets): 0.50 ± 0.05 µM
- MIC50 (Mtb H37Rv) (Mtb H37Rv [11]): 0.43 µg/mL

Compound: Dihydrosansanmycin B
- MIC50 (Mtb H37Rv) (Mtb H37Rv [11]; value in brackets): 0.30 ± 0.07 µM
- MIC50 (Mtb H37Rv) (Mtb H37Rv [11]): 0.25 µg/mL

Compound: Dihydrosansanmycin C
- MIC50 (Mtb H37Rv) (Mtb H37Rv [11]; value in brackets): 18.5 ± 0.70 µM
- MIC50 (Mtb H37Rv) (Mtb H37Rv [11]): 16 µg/mL

Compound: Mureidomycin A
- IC50 (MraY B. subtilis) (MraY B. subtilis): 0.05 µg/mL

Compound: Pacidamycin D
- MIC (Pae PAM1020) (Pae PAM1020): 64 µg/mL
- MIC (Pae PAO1) (Pae PAO1): 64 µg/mL

Compound: Sansanmycin B
- MIC (Mtb H37Rv) (Mtb H37Rv [8]): 8 µg/mL

Compound: Sansanmycin C
- MIC (Mtb H37Rv) (Mtb H37Rv [8]): > 32 µg/mL

From publication PMC10643210, “Expanding structural diversity of 5′-aminouridine moiety of sansanmycin via mutational biosynthesis” (Frontiers in Bioengineering and Biotechnology, 2023)
